{
  "source": "patent US20240317721A1",
  "about": "“PYRAZOLYL DERIVATIVES AS INHIBITORS OF THE KRAS MUTANT PROTEIN” (NOVARTIS AG, priority 2021, published 2024)",
  "data": [
    {"biological_target": "KRasG12C (M1-K169, biotinylated on the N-terminus) (Homo sapiens (Human), UniProt P01116, G12C)", "test": "Covalent competition assay: scintillation proximity assay (SPA) quantifying covalent modification of KRASG12C", "type": "binding", "settings": "competition with radiolabeled covalent probe (Compound B/Compound A), 2 hours incubation, 10 nM KRasG12C", "description": "Cells were harvested by centrifugation and frozen at −80° C. until further processing. […] The cells were lysed by 4 passages through an Avestin Emulsiflex at about 20000 psi and insoluble debris removed by centrifugation and filtered through a 0.45 µm Durapore membrane (Millipore). […] Eluted protein fractions were analyzed by Novex NuPage 4-12% PAGE. […] The protein in the flow through was subjected to a final polishing step on a HiLoad 16/60 Superdex 200 prep grade size-exclusion column pre-equilibrated with SEC-buffer (20 mM HEPES pH 7.4, 150 mM NaCl, 5 mM MgCl2, 1 µM GDP). Positive fractions were determined by PAGE (Novex NuPage 4-12% BisTris) analysis.\nA scintillation proximity assay (SPA) was used to determine the potency of the compounds.\nThis assay measures the ability of the test compound to compete with the radiolabeled covalent probe for binding to and covalently modify KRASG12C.\n(see above for synthesis of Compound A and Compound B). A serial dilution of the compounds to be tested is mixed with a fixed concentration of the radiolabeled covalent probe before incubation with KRASG12C:GDP as described below. KRASG12C can either be bound by the radiolabeled covalent probe (Compound B), resulting in light being emitted from the beads, or bound by covalent test compound preventing signal generation.\nA 1/20 isotopic dilution of labeled (Compound B) and non-labeled covalent (Compound A) probe was prepared and added to all wells on the plate. The reaction was started by addition of KRasG12C (M1-K169, biotinylated on the N-terminus) to the compounds and incubated for 2 hours with continuous agitation allowing for full modification of KRasG12C with probe or test compounds. Final concentrations in an assay volume of 40 μL were 10 nM KRasG12C, 25 nM radio-ligand and 475 nM unlabelled ligand. The assay buffer contained 20 mM Tris-HCl pH 7.5 (Invitrogen), 150 mM NaCl (Sigma Aldrich), 0.1 mM MgCl2 (Sigma Aldrich), and 0.01% Tween-20 (Sigma Aldrich). Following addition of 50 μL of a 400 μg/mL suspension of streptavidin-coated YSi beads (Perkin Elmer), plates were incubated for a further 30 min with continuous agitation before reading the plates on a scintillation counter (Topcount NXT 384 (Packard).\nEvaluation was carried out using assay data analysis software (such as the standard Novartis in-house Helios software application, Novartis Institutes for BioMedical Research, unpublished) using the methods described in Formenko et al., Robust Regression for high-throughput screening, Computer Methods and Programs in Biomedicine, 2006, 82, 31-37. Following normalization of activity values for the wells to % inhibition (% inhibition=[(high control−sample)/(high control−low control)]×100), IC50 fitting was carried out from the duplicate determinations present on each plate according to Formenko et al., 2006.\nEvaluation can also be carried out using commercially available software which is designed to derive IC50 values using 4-parameter fits (e.g. GraphPad Prism, XL fit).", "units": {"IC50": "µM"}, "values": [
      {"smiles": "C=CC(=O)N1CC2(CC(n3nc(N4CCN(C(C)=O)C5(CCC5)C4)c(-c4c(Cl)c(C)cc5[nH]ncc45)c3C)C2)C1", "note": "(single isomer, unassigned) [Example 20b, 1-(6-(3-(5-acetyl-5,8-diazaspiro[3.5]nonan-8-yl)-4-(5-chloro-6-methyl-1H-indazol-4-yl)-5-methyl-1H-pyrazol-1-yl)-2-azaspiro[3.3]heptan-2-yl)prop-2-en-1-one]", "IC50": 38.3},
      {"smiles": "C=CC(=O)N1CC2(CC(n3nc(N4CCN(C(C)=O)CC45CCC5)c(-c4c(Cl)c(C)cc5[nH]ncc45)c3C)C2)C1", "note": "(single isomer, unassigned) [Example 21a, 1-(6-(3-(8-acetyl-5,8-diazaspiro[3.5]nonan-5-yl)-4-(5-chloro-6-methyl-1H-indazol-4-yl)-5-methyl-1H-pyrazol-1-yl)-2-azaspiro[3.3]heptan-2-yl)prop-2-en-1-one]", "IC50": 11.1},
      {"smiles": "C=CC(=O)N1CC2(CC(n3nc(N4CCN(C(C)=O)CC45CCC5)c(-c4c(Cl)c(C)cc5[nH]ncc45)c3C)C2)C1", "note": "(single isomer, unassigned) [Example 21b, 1-(6-(3-(8-acetyl-5,8-diazaspiro[3.5]nonan-5-yl)-4-(5-chloro-6-methyl-1H-indazol-4-yl)-5-methyl-1H-pyrazol-1-yl)-2-azaspiro[3.3]heptan-2-yl)prop-2-en-1-one]", "IC50": 0.017},
      {"smiles": "C=CC(=O)N1CC2(CC(n3nc(N4CCOCC4(C)C)c(-c4c(Cl)c(C)cc5[nH]ncc45)c3C)C2)C1", "note": "(single isomer, unassigned) [Example 22a, 1-(6-(4-(5-chloro-6-methyl-1H-indazol-4-yl)-3-(3,3-dimethylmorpholino)-5-methyl-1H-pyrazol-1-yl)-2-azaspiro[3.3]heptan-2-yl)prop-2-en-1-one]", "IC50": "> 50"},
      {"smiles": "C=CC(=O)N1CC2(CC(n3nc(N4CCOCC4(C)C)c(-c4c(Cl)c(C)cc5[nH]ncc45)c3C)C2)C1", "note": "(single isomer, unassigned) [Example 22b, 1-(6-(4-(5-chloro-6-methyl-1H-indazol-4-yl)-3-(3,3-dimethylmorpholino)-5-methyl-1H-pyrazol-1-yl)-2-azaspiro[3.3]heptan-2-yl)prop-2-en-1-one]", "IC50": 0.113},
      {"smiles": "C=CC(=O)N1CC2(CC(n3nc(N4CCn5ccnc5C4(C)C)c(-c4c(Cl)c(C)cc5[nH]ncc45)c3C)C2)C1", "note": "(single isomer, unassigned) [Example 23a, 1-(6-(4-(5-chloro-6-methyl-1H-indazol-4-yl)-3-(8,8-dimethyl-5,6-dihydroimidazo[1,2-a]pyrazin-7(8H)-yl)-5-methyl-1H-pyrazol-1-yl)-2-azaspiro[3.3]heptan-2-yl)prop-2-en-1-one]", "IC50": "> 50"},
      {"smiles": "C=CC(=O)N1CC2(CC(n3nc(N4CCn5ccnc5C4(C)C)c(-c4c(Cl)c(C)cc5[nH]ncc45)c3C)C2)C1", "note": "(single isomer, unassigned) [Example 23b, 1-(6-(4-(5-chloro-6-methyl-1H-indazol-4-yl)-3-(8,8-dimethyl-5,6-dihydroimidazo[1,2-a]pyrazin-7(8H)-yl)-5-methyl-1H-pyrazol-1-yl)-2-azaspiro[3.3]heptan-2-yl)prop-2-en-1-one]", "IC50": 0.634},
      {"smiles": "C=CC(=O)N1CC2(CC(n3nc(N4CCN(C(C)=O)CC4(C)C)c(-c4c(Cl)c(C)cc5[nH]ncc45)c3C3CC3)C2)C1", "note": "(single isomer, unassigned) [Example 24a, 1-(6-(3-(4-acetyl-2,2-dimethylpiperazin-1-yl)-4-(5-chloro-6-methyl-1H-indazol-4-yl)-5-cyclopropyl-1H-pyrazol-1-yl)-2-azaspiro[3.3]heptan-2-yl)prop-2-en-1-one]", "IC50": "> 50"},
      {"smiles": "C=CC(=O)N1CC2(CC(n3nc(N4CCN(C(C)=O)CC4(C)C)c(-c4c(Cl)c(C)cc5[nH]ncc45)c3C3CC3)C2)C1", "note": "(single isomer, unassigned) [Example 24b, 1-(6-(3-(4-acetyl-2,2-dimethylpiperazin-1-yl)-4-(5-chloro-6-methyl-1H-indazol-4-yl)-5-cyclopropyl-1H-pyrazol-1-yl)-2-azaspiro[3.3]heptan-2-yl)prop-2-en-1-one]", "IC50": 0.167},
      {"smiles": "C=CC(=O)N1CC2(CC(n3nc(N4CCC5(CC4)CN(C(C)=O)CCO5)c(-c4c(Cl)c(C)cc5[nH]ncc45)c3C)C2)C1", "note": "(single isomer, unassigned) [Example 26a, 1-(6-(3-(4-acetyl-1-oxa-4,9-diazaspiro [5.5]undecan-9-yl)-4-(5-chloro-6-methyl-1H-indazol-4-yl)-5-methyl-1H-pyrazol-1-yl)-2-azaspiro[3.3]heptan-2-yl)prop-2-en-1-one]", "IC50": 11.5},
      {"smiles": "C=CC(=O)N1CC2(CC(n3nc(N4CCC5(CC4)CN(C(C)=O)CCO5)c(-c4c(Cl)c(C)cc5[nH]ncc45)c3C)C2)C1", "note": "(single isomer, unassigned) [Example 26b, 1-(6-(3-(4-acetyl-1-oxa-4,9-diazaspiro [5.5]undecan-9-yl)-4-(5-chloro-6-methyl-1H-indazol-4-yl)-5-methyl-1H-pyrazol-1-yl)-2-azaspiro[3.3]heptan-2-yl)prop-2-en-1-one]", "IC50": 0.11},
      {"smiles": "C=CC(=O)N1CC2(CC(n3nc(N4CCC(C)(O)CC4(C)C)c(-c4c(Cl)c(C)cc5[nH]ncc45)c3C)C2)C1", "note": "(single isomer, unassigned) [Example 27a, 1-(6-(4-(5-chloro-6-methyl-1H-indazol-4-yl)-3-(4-hydroxy-2,2,4-trimethylpiperidin-1-yl)-5-methyl-1H-pyrazol-1-yl)-2-azaspiro[3.3]heptan-2-yl)prop-2-en-1-one]", "IC50": 2.7},
      {"smiles": "C=CC(=O)N1CC2(CC(n3nc(N4CCC(C)(O)CC4(C)C)c(-c4c(Cl)c(C)cc5[nH]ncc45)c3C)C2)C1", "note": "(single isomer, unassigned) [Example 27b, 1-(6-(4-(5-chloro-6-methyl-1H-indazol-4-yl)-3-(4-hydroxy-2,2,4-trimethylpiperidin-1-yl)-5-methyl-1H-pyrazol-1-yl)-2-azaspiro[3.3]heptan-2-yl)prop-2-en-1-one]", "IC50": 0.024},
      {"smiles": "C=CC(=O)N1CC2(CC(n3nc(N4CCC(C)(O)CC4(C)C)c(-c4c(Cl)c(C)cc5[nH]ncc45)c3C)C2)C1", "note": "(single isomer, unassigned) [Example 28a, 1-(6-(4-(5-chloro-6-methyl-1H-indazol-4-yl)-3-(4-hydroxy-2,2,4-trimethylpiperidin-1-yl)-5-methyl-1H-pyrazol-1-yl)-2-azaspiro[3.3]heptan-2-yl)prop-2-en-1-one]", "IC50": 0.076},
      {"smiles": "C=CC(=O)N1CC2(CC(n3nc(N4CCC(C)(O)CC4(C)C)c(-c4c(Cl)c(C)cc5[nH]ncc45)c3C)C2)C1", "note": "(single isomer, unassigned) [Example 28b, 1-(6-(4-(5-chloro-6-methyl-1H-indazol-4-yl)-3-(4-hydroxy-2,2,4-trimethylpiperidin-1-yl)-5-methyl-1H-pyrazol-1-yl)-2-azaspiro[3.3]heptan-2-yl)prop-2-en-1-one]", "IC50": 1.3},
      {"smiles": "C=CC(=O)N1CC2(CC(n3nc(N4CCC(O)CC4(C)C)c(-c4c(Cl)c(C)cc5[nH]ncc45)c3C)C2)C1", "note": "(single isomer, unassigned) [Example 29a, 1-(6-(4-(5-chloro-6-methyl-1H-indazol-4-yl)-3-(4-hydroxy-2,2-dimethylpiperidin-1-yl)-5-methyl-1H-pyrazol-1-yl)-2-azaspiro[3.3]heptan-2-yl)prop-2-en-1-one]", "IC50": "> 5"},
      {"smiles": "C=CC(=O)N1CC2(CC(n3nc(N4CCC(O)CC4(C)C)c(-c4c(Cl)c(C)cc5[nH]ncc45)c3C)C2)C1", "note": "(single isomer, unassigned) [Example 29b, 1-(6-(4-(5-chloro-6-methyl-1H-indazol-4-yl)-3-(4-hydroxy-2,2-dimethylpiperidin-1-yl)-5-methyl-1H-pyrazol-1-yl)-2-azaspiro[3.3]heptan-2-yl)prop-2-en-1-one]", "IC50": 0.032},
      {"smiles": "C=CC(=O)N1CC2(CC(n3nc(N4CCC(O)CC4(C)C)c(-c4c(Cl)c(C)cc5[nH]ncc45)c3C)C2)C1", "note": "(single isomer, unassigned) [Example 30a, 1-(6-(4-(5-chloro-6-methyl-1H-indazol-4-yl)-3-(4-hydroxy-2,2-dimethylpiperidin-1-yl)-5-methyl-1H-pyrazol-1-yl)-2-azaspiro[3.3]heptan-2-yl)prop-2-en-1-one]", "IC50": 0.514}
    ]}
  ]
}
